# Legend:
# TrkA kinase = TrkA kinase (Homo sapiens, UniProt P04629); assay: TrkA kinase assay (mobility shift assay); assay type: biochemical; details: numeric values; read-out: Trk A Kinase IC50
# How it was run: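 Ten-point compound series was preincubated 10 min at room temperature with TrkA, then FAM-peptide plus ATP added in HEPES pH 7.5/Brij-35 buffer and reacted at 28 °C before EDTA quench.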
# [1] = Liver microsomes metabolic stability assay, human; assay type: in vitro ADME; details: human liver microsomes 0.5 mg/mL, 37° C.; for half-life at 2 μM: read-out: t1/2 Human
# Method: (§1) Example 203 Liver Microsomes Metabolic Stability Assay
# (§2) Pooled human liver microsomes (Cat. 452117) were purchased from Corning. Pooled male rat liver microsomes (Cat. R1000) and pooled male mouse liver microsomes (Cat. M1000) were purchased from XENOTECH. Microsomes were stored at −80° C.
# (§3) 1) Make a master solution containing phosphate buffer, ultra-pure H2O and MgCl2 solution according to Table 14.
# (§4) 2) Two separated experiments were performed as follows.
# (§5) a) With NADPH: 10 μL of 20 mg/mL liver microsomes and 40 μL of 10 mM NADPH were added to the incubations. The final concentrations of microsomes and NADPH were 0.5 mg/mL and 1 mM, respectively.
# (§6) b) Without NADPH: 10 μL of 20 mg/mL liver microsomes and 40 μL of ultra-pure H2O were added to the incubations. The final concentration of microsomes was 0.5 mg/mL.
# (§7) 3) The reaction was started with the addition of 4 μL test compounds solutions or control compound solution (verapamil) at the final concentration of 2 μM and carried out at 37° C.
# (§8) 4) Aliquots of 50 μL were taken from the reaction solution at 0, 15, 30, 45 and 60 min. The reaction solutions were stopped by the addition of 4 volumes of cold acetonitrile with 1S (100 nM alprazolam, 200 nM caffeine, 200 nM labetalol and 2 μM ketoprofen). Samples were centrifuged at 3,220 g for 40 minutes. Aliquot of 100 μL of the supernatant was mixed with 100 μL of ultra-pure H2O and then used for LC-MS/MS analysis. All experiments were performed in duplicate.
# (§9) The slope value, k, was determined by linear regression of the natural logarithm of the remaining percentage of the parent drug vs. incubation time curve.
# (§10) The in vitro half-life (in vitro t1/2) was determined from the slope value:
# (§11) Conversion of the in vitro t1/2 (in min) into the in vitro intrinsic clearance (in vitro CLint, in μL/min/mg proteins) was done using the following equation (mean of duplicate determinations): […]
# (§12) The control compound (verapamil) was included in the assay. Any value of the compounds that was not within the specified limits will be rejected and the experiment will be repeated.
# [2] = Liver microsomes metabolic stability assay, rat; assay type: in vitro ADME; details: male, rat liver microsomes 0.5 mg/mL, 37° C.; for half-life at 2 μM: read-out: t1/2 Rat
# Method: as §1, §2, §3, §4, §5, §6, §7, §8, §9, §10, §11, §12
# [3] = Liver microsomes metabolic stability assay, mouse; assay type: in vitro ADME; details: male, mouse liver microsomes 0.5 mg/mL, 37° C.; for half-life at 2 μM: read-out: t1/2 Mouse
# Method: as §1, §2, §3, §4, §5, §6, §7, §8, §9, §10, §11, §12
# TrkA kinase, sequence (P04629 33-796): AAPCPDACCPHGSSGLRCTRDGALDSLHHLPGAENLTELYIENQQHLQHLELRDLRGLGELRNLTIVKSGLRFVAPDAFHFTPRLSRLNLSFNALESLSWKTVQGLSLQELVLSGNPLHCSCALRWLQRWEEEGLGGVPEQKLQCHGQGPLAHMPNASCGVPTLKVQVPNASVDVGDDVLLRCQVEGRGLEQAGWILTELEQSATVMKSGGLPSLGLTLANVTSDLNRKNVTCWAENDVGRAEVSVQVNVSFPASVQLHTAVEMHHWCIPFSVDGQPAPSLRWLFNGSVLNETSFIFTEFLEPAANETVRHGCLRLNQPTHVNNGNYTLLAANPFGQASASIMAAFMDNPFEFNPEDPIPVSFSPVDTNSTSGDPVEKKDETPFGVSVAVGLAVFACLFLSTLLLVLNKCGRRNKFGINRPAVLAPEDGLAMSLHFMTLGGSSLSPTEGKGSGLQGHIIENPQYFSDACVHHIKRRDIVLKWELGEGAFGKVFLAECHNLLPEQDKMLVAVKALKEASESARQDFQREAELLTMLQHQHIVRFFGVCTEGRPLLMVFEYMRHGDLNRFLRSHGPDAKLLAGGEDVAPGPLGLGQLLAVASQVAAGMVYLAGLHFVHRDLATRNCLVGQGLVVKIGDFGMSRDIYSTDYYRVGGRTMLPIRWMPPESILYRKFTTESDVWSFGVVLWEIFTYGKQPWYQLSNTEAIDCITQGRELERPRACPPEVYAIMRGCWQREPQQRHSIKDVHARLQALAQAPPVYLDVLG
SMILES,IC50 (TrkA kinase) [nM],microsomal CLint at 2 μM [1] [µL/min/mg],half-life at 2 μM [1] [min],microsomal CLint at 2 μM [2] [µL/min/mg],half-life at 2 μM [2] [min],microsomal CLint at 2 μM [3] [µL/min/mg],half-life at 2 μM [3] [min]
"C[C@@](O)(c1nnc(-c2cnn3ccc(N4CCC[C@@H]4c4cc(F)ccc4F)nc23)[nH]1)C(F)(F)F [Compound 26, (R)-2-(5-(5-((R)-2-(2,5-difluorophenyl)pyrrolidin-1-yl)pyrazolo[1,5-a]pyrimidin-3-yl)-4H-1,2,4-triazol-3-yl)-1,1,1-trifluoropropan-2-ol]",2.6,23,60.2,40.5,34.2,25.9,53.5
"Fc1ccc(F)c([C@H]2CCCN2c2ccn3ncc(-c4nnc(-c5ccc6c(c5)CCNC6)[nH]4)c3n2)c1 [Compound 36, (R)-6-(5-(5-(2-(2,5-difluorophenyl)pyrrolidin-1-yl)pyrazolo[1,5-a]pyrimidin-3-yl)-4H-1,2,4-triazol-3-yl)-1,2,3,4-tetrahydroisoquinoline]",1.14,4.4,315,19.2,72.2,4.6,301
"Fc1ccc(F)c([C@H]2CCCN2c2ccn3ncc(-c4nnc(-c5ccc(N6CCNCC6)cc5)[nH]4)c3n2)c1 [Compound 40, (R)-5-(2-(2,5-difluorophenyl)pyrrolidin-1-yl)-3-(5-(4-(piperazin-1-yl)phenyl)-4H-1,2,4-triazol-3-yl)pyrazolo[1,5-a]pyrimidine]",1.56,3.2,433,4.6,301,12.4,112
"Fc1ccc(F)c([C@H]2CCCN2c2ccn3ncc(-c4nc5cnccc5[nH]4)c3n2)c1 [Compound 65, (R)-2-(5-(2-(2,5-difluorophenyl)pyrrolidin-1-yl)pyrazolo[1,5-a]pyrimidin-3-yl)-1H-imidazo[4,5-c]pyridine]",0.27,12.6,110,17.2,80.6,24,57.8
"Fc1ccc(F)c([C@H]2CCCN2c2ccn3ncc(-c4nc5cnncc5[nH]4)c3n2)c1 [Compound 76, (R)-2-(5-(2-(2,5-difluorophenyl)pyrrolidin-1-yl)pyrazolo[1,5-a]pyrimidin-3-yl)-1H-imidazo[4,5-d]pyridazine]",0.66,21.2,65.4,22.2,62.4,15.6,88.8

# The next lines start with the values.
IC50 (TrkA kinase) [nM],microsomal CLint at 2 μM [1] [µL/min/mg],half-life at 2 μM [1] [min],microsomal CLint at 2 μM [2] [µL/min/mg],half-life at 2 μM [2] [min],microsomal CLint at 2 μM [3] [µL/min/mg],half-life at 2 μM [3] [min],SMILES
27.1,17,81.5,12.2,114,10.8,128,"Fc1ccc(F)c([C@H]2CCCN2c2ccn3ncc(-c4nc5cc(OC(F)(F)F)ccc5[nH]4)c3n2)c1 [Compound 71, (R)-5-(2-(2,5-difluorophenyl)pyrrolidin-1-yl)-3-(5-(trifluoromethoxy)-1H-benzo[d]imidazol-2-yl)pyrazolo[1,5-a]pyrimidine]"
11.9,10.2,136,10.8,128,10,139,"Fc1ccc(F)c([C@H]2CCCN2c2ccn3ncc(-c4nc5cc6c(cc5[nH]4)OC(F)(F)O6)c3n2)c1 [Compound 79, (R)-6-(5-(2-(2,5-difluorophenyl)pyrrolidin-1-yl)pyrazolo[1,5-a]pyrimidin-3-yl)-2,2-difluoro-5H-[1,3]dioxolo[4′,5′:4,5]benzo[1,2-d]imidazole]"
23.6,2.4,578,7,198,8.4,165,"Fc1ccc(F)c([C@H]2CCCN2c2ccn3ncc(-c4nc5ccc(OC(F)(F)F)cc5o4)c3n2)c1 [Compound 80, (R)-2-(5-(2-(2,5-difluorophenyl)pyrrolidin-1-yl)pyrazolo[1,5-a]pyrimidin-3-yl)-6-(trifluoromethoxy)benzo[d]oxazole]"
0.44,5.6,248,1.4,990,0.8,1730,"COc1cc2nc(-c3cnn4ccc(N5CCC[C@@H]5c5cc(F)ccc5F)nc34)[nH]c2cc1C(=O)O [Compound 90, (R)-2-(5-(2-(2,5-difluorophenyl)pyrrolidin-1-yl)pyrazolo[1,5-a]pyrimidin-3-yl)-5-methoxy-1H-benzo[d]imidazole-6-carboxylic acid]"
20.7,20.4,67.9,10.2,136,5.6,248,"Fc1ccc(F)c([C@H]2CCCN2c2ccn3ncc(-c4nc5cc(Cl)c(OC(F)(F)F)cc5[nH]4)c3n2)c1 [Compound 92, (R)-3-(5-chloro-6-(trifluoromethoxy)-1H-benzo[d]imidazol-2-yl)-5-(2-(2,5-difluorophenyl)pyrrolidin-1-yl)pyrazolo[1,5-a]pyrimidine]"
0.7,37,37.5,29.4,47.1,32,43.3,"Fc1ccc(F)c([C@H]2CCCN2c2ccn3ncc(-c4nc5cc6c(cc5[nH]4)OCCO6)c3n2)c1 [Compound 96, (R)-2-(5-(2-(2,5-difluorophenyl)pyrrolidin-1-yl)pyrazolo[1,5-a]pyrimidin-3-yl)-6,7-dihydro-1H-[1,4]dioxino[2′,3′:4,5]benzo[1,2-d]imidazole]"
3.2,16.8,82.5,34,40.8,27.4,50.6,"COc1cc2[nH]c(-c3cnn4ccc(N5CCC[C@@H]5c5cc(F)ccc5F)nc34)nc2cc1Cl [Compound 112, (R)-3-(5-chloro-6-methoxy-1H-benzo[d]imidazol-2-yl)-5-(2-(2,5-difluorophenyl)pyrrolidin-1-yl)pyrazolo[1,5-a]pyrimidine]"
